# Test results as given in US20090023700A1, “NEUROPROTECTIVE TREATMENTS” (University of Louisville Research Foundation, priority 2007, published 2009).
# Tests used:
# RECA1 = RECA1 immunostaining (dorsal column blood vessels at epicenter) after T9 contusion; type: in vivo, rat; conditions: for area of blood vessels (RECA1) in the dorsal column: 7 d infusion started immediately after injury
# Procedure: Another potential contributor to axon loss is ischemia caused by blood vessel loss. To test this possibility, the same sections were analyzed for the extent of endothelial cell/blood vessel sparing by immunostaining for RECA1. […] Therefore, epicenter RECA1 was measured in additional 7 d postinjury groups, excluding those infused at the epicenter and those with an epicenter transection (SEP), which damaged the tissue. The bpV(phen) treatment (started immediately after the injury) increased the area of blood vessels in the dorsal column in those rats infused with 30 and 100 μM bpV(phen) (FIG. 8E). […] However, there was no correlation between RECA1- and EC-stained dorsal column epicenter white matter (p=0.98).
# Anterogradely labeled sensory fibers and terminals were visualized in every third section through both gracile nuclei by DAB-based immunostaining for CTB as described previously (Baker et al. (2007) Exp Neurol 205:82-91). The lumbar sections were stained to ensure that the CTB injections were successful as evidenced by traced afferents and motor neurons. […] The epicenter of maximal injury was determined by the rostrocaudal level with the least amount of spared white matter per transverse section. […]
# Quantitative measurements and statistics. The extent of sensory innervation of the gracile nucleus was determined by measuring the CTB-labeled terminal fiber area in every third section as described previously (Baker et al. (2007) Exp Neurol 205:82-91). In short, images of every third section through the right and left gracile nuclei were analyzed using the density slice feature of the Scion Image software. […] Images of EC-stained sections were captured, and the positive areas were measured with Scion Image. […] The number of spared myelinated axons at C3 was counted in semithin sections using a 63× oil objective in 15.7×15.7 μm grids placed over the middle part of each fasciculus gracilis (see FIG. 4D-4F). […]
# cdc25B PTP = conditions: yeast enzyme; cited from earlier work
# [1] = system: T9 contusive spinal cord injury; assay: Grid-walking sensorimotor test after T9 contusion
# Procedure: Rats received a 0.3 mm contusion at T9 and 4 h later were implanted with a lumbar catheter to start infusions with PBS (n=9) or PBS containing 100 μM bpV(phen) (n=9). The treatment was maintained for 28 d by replacing the Alzet pumps every week with ones containing fresh reagents (FIG. 1A). Weekly hindlimb grid-walking performance was used to test sensorimotor function, which is in part dependent on the primary afferents and second-order propriospinal axons of the fasciculus gracilis in the dorsal columns. […] Naive rats take ˜150 s to complete the task.
# Baseline values were determined a few days before the contusion. Sensorimotor function was tested by voluntary walking on a 45×45 inch grid with 1.5 inch holes. The hindlimb footfalls were called out by two investigators observing from different sides and recorded by a third. The test was completed after 90 s of walking was observed, and the total time was recorded.
smiles,measurement,setting,value
"O.O.O.OO.OO.[K+].[OH-].[V].c1cnc2c(c1)ccc1cccnc12 [bpV(phen), potassium bisperoxo(1,10-phenanthroline)oxovanadate (V)]",area of blood vessels (RECA1) in the dorsal column,RECA1; 30 μM,increased
same,area of blood vessels (RECA1) in the dorsal column,RECA1; 100 μM,increased
same,blood vessels (RECA1) in the dorsal column at the epicenter,"RECA1; 7 d infusion started 4 h after injury, area not significantly different from sham",sparing
same,inhibition of catalytic activity of purified cdc25B PTP,cdc25B PTP,can inhibit
same,total time to perform 90 s of grid walking,"[1]; 100 μM L5/6 infusion started 4 h after contusion, 8 d, PBS 219 s, naive ~150 s",151 s
same,"number of hindlimb footfalls (sum of both hindlimbs), grid walk","[1]; 100 μM L5/6 infusion started 4 h after contusion, 8 d test, PBS 29+/−6, before contusion 7+/−1",14+/−2
same,rats within normal range of footfalls (3-14),"[1]; 100 μM L5/6 infusion started 4 h after contusion, day 8, PBS one of nine",seven of nine
same,"number of hindlimb footfalls, grid walk","[1]; 100 μM, 28 d L5/6 infusion started 4 h after contusion, 29 d test, PBS 13+/−2",6+/−1
same,total time to perform 90 s of grid walking,"[1]; 100 μM, 28 d L5/6 infusion started 4 h after contusion, 36 d, PBS 200 s",125 s
